Patent US10017522B2, “Alpha helix mimetics and methods relating thereto” (PRISM BioLab Co., Ltd., priority 2009, dated 2018)

System: Wnt signaling pathway
Assay: Reporter gene assay (SuperTOPFLASH luciferase, LiCl stimulated, Hek-293 STF1.1 cells)
Assay type: cell-based
Conditions: Homo sapiens, HEK293; at the concentration of 10 μM; stably transfected cell line Hek-293, STF1.1; 20 mM LiCl medium added, 24 hours; read-out: inhibitory activity determined by reporter gene assay
Experimental: Screening for inhibitory action of the Wnt signaling pathway can be carried out according to the following procedure using the stably transfected cell line Hek-293, STF1.1. • Growth Medium: DMEM, 10% FBS, Pen-Strep, supplemented with 400 μg/mL G418 to maintain selection of SuperTOPFLASH driven Luciferase gene • 1. On the day prior to assay, split cells into a white opaque 96-well plate at 20,000 cells per well in 200 μl of complete growth medium • 2. Incubate the plate overnight at 37° C., 5% CO2 and allow the cells to attach • 3. Next day, prepare the inhibitors to be tested in complete growth medium, without G418, at 2× the desired final concentration (all conditions are done in duplicates) • 4. Carefully remove the old medium from each well using a multiple pipettor • 5. […] Read plate on the Packard TopCount
In the tables, the compounds having inhibitory activity more than 50% at the concentration of 10 microM (μM) determined by reporter gene assay are shown below.
Screening for inhibitory action of the Wnt signaling pathway was carried out according to the following procedure using the stably transfected cell line Hek-293, STF1.1 • Growth Medium: DMEM, 10% FBS, Pen-Strep, supplemented with 400 μg/mL G418 to maintain selection of SuperTOPFLASH driven Luciferase gene • 1. […] Read plate on the Packard TopCount

CN1[C@@H](Cc2ccc(O)cc2)C(=O)N(Cc2cccc3ccccc23)CC2N(C(=O)NCc3ccccc3)CCC(=O)N21 (stereo partly drawn) [Example I-268, (2S)—N-benzyl-2-(4-hydroxybenzyl)-1-methyl-4-(naphthalen-1-ylmethyl)-3,9-dioxooctahydropyrimido[1,2-b][1,2,5]triazepine-6(7H)-carboxamide]
inhibition at 10 µM: ≥ 50%
